Results taken from US20060100243A1 (priority 2004, published 2006).
“Also recorded” adds a separate entry of the source. Like-named read-outs stand apart in the source and are kept apart here.

Key:
[1] = target: T1, recombinant human dopamine transporter (Homo sapiens, UniProt Q01959); test: [125I]RTI-55 binding, dopamine transporter in HEK 293 cells; details: for Ki: HEK 293 cells; for potency at binding to the dopamine transporter and blocking dopamine reuptake: in words, compared with MPH / other samples
T1 construct: expressed in transfected cells
T1 sequence (Q01959 whole entry): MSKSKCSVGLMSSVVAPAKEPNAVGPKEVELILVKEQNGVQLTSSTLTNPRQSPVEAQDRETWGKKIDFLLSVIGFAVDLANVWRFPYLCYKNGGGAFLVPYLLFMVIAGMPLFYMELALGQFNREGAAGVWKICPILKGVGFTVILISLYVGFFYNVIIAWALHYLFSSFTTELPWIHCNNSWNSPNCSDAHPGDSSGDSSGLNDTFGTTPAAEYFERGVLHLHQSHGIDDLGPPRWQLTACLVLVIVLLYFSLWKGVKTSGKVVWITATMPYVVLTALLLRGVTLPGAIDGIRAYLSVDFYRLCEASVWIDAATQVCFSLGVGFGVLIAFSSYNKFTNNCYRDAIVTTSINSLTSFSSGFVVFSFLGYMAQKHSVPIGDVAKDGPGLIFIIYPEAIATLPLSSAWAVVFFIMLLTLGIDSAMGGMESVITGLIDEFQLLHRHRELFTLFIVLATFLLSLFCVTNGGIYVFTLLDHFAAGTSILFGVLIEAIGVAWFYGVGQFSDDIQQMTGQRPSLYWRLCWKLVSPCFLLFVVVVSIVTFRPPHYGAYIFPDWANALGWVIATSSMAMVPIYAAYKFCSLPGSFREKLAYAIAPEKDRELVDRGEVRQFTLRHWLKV

[2] = target: T1, recombinant human dopamine transporter; test: dopamine reuptake inhibition in HEK 293 cells; format: cell-based; details: for IC50: HEK 293 cells; for NE/DA REUPTAKE: ratio of NE/DA reuptake IC50, selectivity for dopamine over norepinephrine transporter
[3] = target: T2, recombinant human serotonin transporter (Homo sapiens, UniProt P31645); test: biochemical; format: binding
T2 construct: expressed in transfected cells
T2 sequence (P31645 whole entry): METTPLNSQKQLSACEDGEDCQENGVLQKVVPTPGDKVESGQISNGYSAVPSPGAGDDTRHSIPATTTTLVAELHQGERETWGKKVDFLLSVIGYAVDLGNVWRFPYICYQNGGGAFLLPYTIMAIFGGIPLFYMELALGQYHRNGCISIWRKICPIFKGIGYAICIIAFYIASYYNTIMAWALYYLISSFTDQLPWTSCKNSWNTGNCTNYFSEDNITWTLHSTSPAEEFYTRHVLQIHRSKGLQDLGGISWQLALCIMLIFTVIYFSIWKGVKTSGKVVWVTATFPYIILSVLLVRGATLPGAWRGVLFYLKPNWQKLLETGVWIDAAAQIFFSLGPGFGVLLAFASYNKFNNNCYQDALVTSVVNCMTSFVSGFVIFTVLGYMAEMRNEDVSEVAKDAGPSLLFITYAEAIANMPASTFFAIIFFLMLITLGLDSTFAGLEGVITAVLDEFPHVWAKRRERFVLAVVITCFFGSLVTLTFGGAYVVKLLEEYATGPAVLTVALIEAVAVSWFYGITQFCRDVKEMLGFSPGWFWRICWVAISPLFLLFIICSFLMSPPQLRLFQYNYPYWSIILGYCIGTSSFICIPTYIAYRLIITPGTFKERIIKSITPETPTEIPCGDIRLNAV

[4] = target: T2, recombinant human serotonin transporter; test: serotonin (5HT) reuptake inhibition in HEK 293 cells; format: cell-based
[5] = target: T3, recombinant human norepinephrine transporter (Homo sapiens, UniProt P23975); test: cell-based
T3 construct: expressed in transfected cells
T3 sequence (P23975 whole entry): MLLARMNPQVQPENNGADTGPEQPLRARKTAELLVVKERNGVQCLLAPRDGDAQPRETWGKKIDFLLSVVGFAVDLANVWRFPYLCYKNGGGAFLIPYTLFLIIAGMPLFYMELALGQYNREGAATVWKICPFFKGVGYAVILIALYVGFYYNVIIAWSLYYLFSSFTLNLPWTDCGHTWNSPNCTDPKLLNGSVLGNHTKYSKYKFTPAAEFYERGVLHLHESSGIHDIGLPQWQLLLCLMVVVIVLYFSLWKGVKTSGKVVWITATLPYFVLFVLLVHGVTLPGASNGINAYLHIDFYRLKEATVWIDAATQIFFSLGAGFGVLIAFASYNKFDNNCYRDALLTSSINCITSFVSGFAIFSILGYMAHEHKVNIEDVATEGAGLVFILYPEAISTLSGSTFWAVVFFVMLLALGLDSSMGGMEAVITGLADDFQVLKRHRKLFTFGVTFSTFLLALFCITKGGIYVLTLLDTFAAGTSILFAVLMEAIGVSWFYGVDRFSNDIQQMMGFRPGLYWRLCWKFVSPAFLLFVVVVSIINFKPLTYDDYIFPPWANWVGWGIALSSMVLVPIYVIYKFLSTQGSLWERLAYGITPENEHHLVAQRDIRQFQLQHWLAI

[6] = target: T3, recombinant human norepinephrine transporter; test: biochemical; format: binding
[7] = DOPAMINE [I125]-RTI-55 BINDING (Ki), RR/SS racemates table
[8] = DOPAMINE DA REUPTAKE (IC50), RR/SS racemates table
[9] = RR/SS racemates table, HEK 293 cells, read-out: SEROTONIN [I125]-RTI-55 BINDING (Ki)
[10] = SEROTONIN 5HT REUPTAKE (IC50), RR/SS racemates table, HEK 293 cells
[11] = RR/SS racemates table, HEK 293 cells, read-out: NOREPINEPHRINE NE REUPTAKE (IC50)
[12] = RR/SS racemates table, HEK 293 cells, read-out: NOREPINEPHRINE [I125]-RTI-55 BINDING (Ki)
[13] = NOREPINEPHRINE [I125]-RTI-55 BINDING (Ki)
[14] = RS/SR racemates table, read-out: DOPAMINE [I125]-RTI-55 BINDING (Ki)
[15] = RS/SR racemates table, read-out: DOPAMINE DA REUPTAKE (IC50)
[16] = RS/SR racemates table, HEK 293 cells, read-out: SEROTONIN [I125]-RTI-55 BINDING (Ki)
[17] = RS/SR racemates table, HEK 293 cells, read-out: NOREPINEPHRINE NE REUPTAKE (IC50)
[18] = RS/SR racemates table, HEK 293 cells, read-out: NOREPINEPHRINE [I125]-RTI-55 BINDING (Ki)
[19] = DOPAMINE [I125]-RTI-55 BINDING (Ki), RS/SR racemates table
[20] = DOPAMINE DA REUPTAKE (IC50), RS/SR racemates table
[21] = SEROTONIN [I125]-RTI-55 BINDING (Ki)
[22] = SEROTONIN 5HT REUPTAKE (IC50), RS/SR racemates table, HEK 293 cells
[23] = RR/SS racemates table, read-out: DOPAMINE [I125]-RTI-55 BINDING (Ki)
[24] = RR/SS racemates table, read-out: DOPAMINE DA REUPTAKE (IC50)

| Structure (SMILES) | Ki [1, 7] [nM] | IC50 [2, 8] [nM] | IC50 ([5]; NORE[…] REUPTAKE (IC50)) [nM] | Ki [6, 13] [µM] | Ki [1, 19] [nM] | IC50 [2, 20] [nM] | Ki [3, 21] [nM] | IC50 [4, 22] [µM] | also measured |
| --- | --- | --- | --- | --- | --- | --- | --- | --- | --- |
| COC(=O)C(c1ccc(Cl)c(Cl)c1)C1CCCCN1 (single isomer, unassigned) [M] | 1.4 ± 0.1 | 23 ± 3 | – | – | – | – | – | – | NE/DA REUPTAKE [2]: 0.43; Ki [3, 9]: 1600 ± 150 nM; IC50 [4, 10]: 0.54 ± 0.11 µM; IC50 [5, 11]: 10 ± 1 nM; Ki [6, 12]: 0.014 ± 0.006 µM |
| Clc1ccc(C(CC2CCCCC2)C2CCCCN2)cc1 (single isomer, unassigned) [H] | 130 ± 40 | 230 ± 70 | 940 ± 140 | 4.2 ± 0.2 | – | – | – | – | NE/DA REUPTAKE [2]: 4.1; Ki [3, 9]: 900 ± 400 nM; IC50 [4, 10]: 1 ± 0.2 µM |
| CC(C)CC(c1ccc(Cl)c(Cl)c1)C1CCCCN1 (racemic) [Sample NN] | – | – | – | – | – | – | – | – | Ki [1, 14]: 31 ± 11 nM; potency at binding to the dopamine transporter and blocking dopamine reuptake [1]: considerably more potent; also recorded: most potent; IC50 [2, 15]: 13 ± 3 nM; Ki [3, 16]: 450 ± 40 nM; IC50 ([4]; RS/SR racemates table, HEK 293 cells, read-out: SEROTONIN 5HT REUPTAKE (IC50)): 0.29 ± 0.06 µM; IC50 [5, 17]: 19 ± 3 nM; Ki [6, 18]: 0.12 ± 0.03 µM |
| CC(C)C(c1ccc(Cl)cc1)C1CCCCN1 (single isomer, unassigned) [CC] | – | – | – | > 10 | 900 ± 320 | 990 ± 280 | > 10000 | – | – |
| Clc1ccc(C(CC2CCCCC2)C2CCCCN2)cc1 (single isomer, unassigned) [HH] | – | – | 1700 ± 600 | 4.3 ± 0.2 | 260 ± 30 | 410 ± 60 | – | 6.4 ± 1.3 | Ki [3, 16]: 3700 ± 500 nM |
| CC(C)(C)CC(c1ccc(Cl)cc1)C1CCCCN1 (racemic) [FF] | – | – | 730 ± 250 | – | 600 ± 40 | 670 ± 260 | – | 1.8 ± 0.6 | Ki [3, 16]: 3500 ± 1000 nM |
| CCCC(c1ccc(Cl)cc1)C1CCCCN1 (racemic) [EE] | – | – | 200 ± 50 | 1.4 ± 0.4 | 380 ± 40 | 450 ± 60 | – | 1.3 ± 0.007 | Ki [3, 16]: 3200 ± 1100 nM |
| COC(=O)C(c1ccc(Cl)cc1)C1CCCCN1 (single isomer, unassigned) [A] | 25 ± 8 | 11 ± 2 | – | – | – | – | 6000 ± 100 | – | NE/DA REUPTAKE [2]: 1.0; IC50 [5, 11]: 11 ± 3 nM; Ki [6, 12]: 0.11 ± 0.04 µM |
| COC(=O)C(c1ccc(Cl)cc1)C1CCCCN1 (single isomer, unassigned) [AA] | – | – | – | – | 2000 ± 600 | 2700 ± 1000 | 5900 ± 200 | – | IC50 ([4]; SEROTONIN 5HT REUPTAKE (IC50), RS/SR racemates table, in μM): > 10 µM; IC50 [5, 17]: 1400 ± 400 nM |
| CC(C)C(c1ccc(Cl)cc1)C1CCCCN1 (single isomer, unassigned) [C] | 46 ± 16 | 32 ± 6 | 51 ± 20 | 0.81 ± 0.17 | – | – | 5300 ± 1300 | – | NE/DA REUPTAKE [2]: 1.6; IC50 [4, 10]: 3.3 ± 0.4 µM |
| Clc1ccc(C(CCc2ccccc2)C2CCCCN2)cc1 (single isomer, unassigned) [I] | 24 ± 9 | 160 ± 20 | 680 ± 240 | 1.8 ± 0.6 | – | – | 640 ± 60 | – | NE/DA REUPTAKE [2]: 4.3; IC50 [4, 10]: 0.65 ± 0.219 µM |
| CC(C)CC(c1ccc(Cl)c(Cl)c1)C1CCCCN1 (racemic) [Sample N] | – | – | – | – | – | – | – | – | Ki [1, 23]: 1 ± 0.5 nM; potency at binding to the dopamine transporter and blocking dopamine reuptake [1]: enhanced potency; also recorded: most potent; IC50 [2, 24]: 5.5 ± 1.3 nM; NE/DA REUPTAKE [2]: 1.6; Ki [3, 9]: 1600 ± 100 nM; IC50 ([4]; RR/SS racemates table, HEK 293 cells, read-out: SEROTONIN 5HT REUPTAKE (IC50)): 1.1 ± 0.3 µM; IC50 [5, 11]: 9 ± 1 nM; Ki [6, 12]: 0.025 ± 0.009 µM |
| CC(C)CC(c1ccc(C(C)C)cc1)C1CCCCN1 (racemic) [PP] | – | – | – | 3.2 ± 0.6 | – | – | 1700 ± 500 | 1.7 ± 0.1 | – |
| Clc1ccc(C(CCc2ccccc2)C2CCCCN2)cc1 (single isomer, unassigned) [II] | – | – | 610 ± 150 | 2.4 ± 0.7 | 700 ± 90 | 420 ± 140 | 1840 ± 70 | 2.1 ± 0.9 | – |
| Clc1ccc(C(CC2CCCC2)C2CCCCN2)cc1 (racemic) [LL] | – | – | – | – | – | – | – | – | Ki [1, 14]: 310 ± 80 nM; IC50 [2, 15]: 180 ± 20 nM; IC50 [5, 17]: 730 ± 230 nM; Ki [6, 18]: 2.6 ± 0.8 µM |
| CC(C)CC(c1ccc(Cl)cc1)C1CCCCN1 (racemic) [Sample DD] | – | – | – | – | – | – | – | – | Ki [1, 14]: 170 ± 50 nM; potency at binding to the dopamine transporter and blocking dopamine reuptake [1]: inactivity; IC50 [2, 15]: 380 ± 130 nM; IC50 [5, 17]: 750 ± 170 nM; Ki [6, 18]: 4.5 ± 1.5 µM |
| COC(=O)C(c1ccc(Cl)c(Cl)c1)C1CCCCN1 (single isomer, unassigned) [MM] | – | – | – | – | 90 ± 14 | 800 ± 110 | – | 1.1 ± 0.09 | Ki [3, 16]: 2500 ± 420 nM; IC50 [5, 17]: 190 ± 50 nM; Ki [6, 18]: 4.2 ± 1.9 µM |
| CCC(c1ccc(Cl)cc1)C1CCCCN1 (single isomer, unassigned) [BB] | – | – | – | – | 3500 ± 1000 | 2200 ± 300 | 5700 ± 800 | 2 ± 0.6 | Ki ([6]; RS/SR racemates table, in μM, read-out: NOREPINEPHRINE [I125]-RTI-55 BINDING (Ki)): > 10 µM |
| Clc1ccc(C(C2CCCC2)C2CCCCN2)cc1 (single isomer, unassigned) [KK] | – | – | – | – | 690 ± 140 | 240 ± 30 | – | 4.2 ± 0.9 | Ki [3, 16]: 4600 ± 700 nM |
| CCCCC(c1ccc(Cl)cc1)C1CCCCN1 (single isomer, unassigned) [G] | 7.8 ± 1.1 | 8.2 ± 2.1 | – | – | – | – | – | – | potency at binding to the dopamine transporter and blocking dopamine reuptake [1]: enhanced potency; also recorded: most potent; IC50 [5, 11]: 26 ± 7 nM; Ki ([6]; NOREPINEPHRINE [I125]-RTI-55 BINDING (Ki), RR/SS racemates table, HEK 293 cells): 0.23 ± 0.03 µM |
| Clc1ccc(C(C2CCCC2)C2CCCCN2)cc1 (single isomer, unassigned) [K] | 36 ± 10 | 27 ± 8.3 | – | – | – | – | – | – | Ki [3, 9]: 5700 ± 1100 nM; IC50 [4, 10]: 4.6 ± 0.8 µM |
| Clc1ccc(C(CC2CCCC2)C2CCCCN2)cc1 (racemic) [L] | – | – | – | – | – | – | – | – | Ki [1, 23]: 9.4 ± 1.5 nM; IC50 [2, 24]: 21 ± 1 nM; IC50 [5, 11]: 310 ± 40 nM; Ki [6, 12]: 1.7 ± 0.6 µM |
| CC(C)(C)CC(c1ccc(Cl)cc1)C1CCCCN1 (racemic) [F] | 120 ± 40 | 60 ± 2 | 520 ± 110 | 1.4 ± 0.4 | – | – | – | – | selectivity for the dopamine transporter over the norepinephrine transporter ([2]; in words, from binding and reuptake values): enhanced selectivity; NE/DA REUPTAKE [2]: 8.7; Ki [3, 9]: 3900 ± 500 nM |
| CCCCC(c1ccc(Cl)cc1)C1CCCCN1 (single isomer, unassigned) [GG] | – | – | – | – | 290 ± 70 | 170 ± 40 | – | – | IC50 [5, 17]: 180 ± 160 nM; Ki ([6]; NOREPINEPHRINE [I125]-RTI-55 BINDING (Ki), RS/SR racemates table, HEK 293 cells): 1.6 ± 0.3 µM |
